This is an account of results in patent publication US8796228B2, “Method for neutralizing fungi using sophorolipids and antifungal sophorolipids for use therein” (Synthezyme, LLC, priority 2004, dated 2014).

What all share (assay): Antifungal assay, growth inhibition by OD in 96 well plates
Assay type in all cases: cell-based
What all share (settings): 5 mg/ml sophorolipid solution, 48 hours at 30° C., OD at 400 nm vs control wells

In experiment [1] the test system is Candida albicans. The protocol:
(§1) Sophorolipid solution was prepared by adding 15 mg of compound in 1 ml sucrose solution, pH 8.5.
(§2) All assay were carried out in 96 well plates using Yeast extract-Maltose medium. The logarithmic growing cultures were incubated with 5 mg/ml of sophorolipids for 48 hours at 30° C. Following incubation, the wells were measured for Optical Density (OD) at 400 nm using microtitre plate readers. Percent (%) inhibition of growth was calculated corresponding to the OD in control wells containing no sophorolipid.

Experiment [2] has as its system Candida antartica. As for the experimental part: as §1, §2
The test system of experiment [3] is Candida tropicalis. The protocol:
as §1, §2

Structures are written as SMILES.

Regarding `CCCCCCOC(=O)CCCCCCC/C=C\CCCCCCC(C)O[C@@H]1O[C@H](CO)[C@@H](O)[C@H](O)[C@H]1O[C@@H]1O[C@H](CO)[C@@H](O)[C@H](O)[C@H]1O` (relative stereo) [Hexyl SL, Hexyl 17-L-[(2′-O-β-D-glucopyranosyl-β-D-glucopyranosyl)-oxy]-cis-9-octadecenoate], the Inhibition % is recorded as 38% in experiment [1], 100% in experiment [2] and 100% in experiment [3].

As for `CCOC(=O)CCCCCCC/C=C\CCCCCCC(C)O[C@@H]1O[C@H](CO)[C@@H](O)[C@H](O)[C@H]1O[C@@H]1O[C@H](CO)[C@@H](O)[C@H](O)[C@H]1O` (relative stereo) [SL - Ethyl Ester, Ethyl 17-L-([2′-O-β-D-glucopyranosyl-β-D-glucopyranosyl]-oxy)-cis-9-octadecenoate], the Inhibition % in experiment [1] amounted to 20%; in experiment [2], 28%; in experiment [3] it was 35%.

With `COC(=O)CCCCCCC/C=C\CCCCCC[C@H](C)O[C@@H]1O[C@H](CO)[C@@H](O)[C@H](O)[C@H]1O[C@@H]1O[C@H](CO)[C@@H](O)[C@H](O)[C@H]1O` (relative stereo) [SL - Methyl Ester, Methyl 17-L-([2′-O-β-D-glucopyranosyl-β-D-glucopyranosyl]-oxy)-cis-9-octadecenoate], the Inhibition % in experiment [1] came out at 100%; in experiment [2] it was 71%; in experiment [3] it was 100%.

With `CCOC(=O)CCCCCCC/C=C\CCCCCCC(C)O[C@@H]1O[C@H](COC(C)=O)[C@@H](O)[C@H](O)[C@H]1O[C@@H]1O[C@H](COC(C)=O)[C@@H](O)[C@H](O)[C@H]1O` (relative stereo) [SL Ethyl Ester Diacetate, Ethyl 17-L-([2′-O-β-D-glucopyranosyl-β-D-glucopyranosyl]-oxy)-cis-9-octadecenoate 6′,6″-diacetate], the Inhibition % in experiment [1], in experiment [2] and in experiment [3] was 100% each time.

Regarding `CCOC(=O)CCCCCCC/C=C\CCCCCC[C@H](C)O[C@@H]1O[C@H](CO)[C@@H](O)[C@H](O)[C@H]1O[C@@H]1O[C@H](COC(C)=O)[C@@H](O)[C@H](O)[C@H]1O` (relative stereo) [SL Ethyl Ester Monoacetate, Ethyl 17-L-[(2′-O-β-D-glucopyranosyl-β-D-glucopyranosyl)-oxy]-cis-9-octadecenoate-6″-acetate], the Inhibition % is on record as 100% in experiment [1], 42% in experiment [2] and 35% in experiment [3].
